Source: patent US11261230B2, “Synthetic somatostatin receptor ligands” (TEL HASHOMER MEDICAL RESEARCH INFRASTRUCTURE AND SERVICES …, priority 2014, dated 2022)
*1 amine or outer side, *2 acyl side, *3 side chain or, on linkers, in order; H or OH if unused. Where a SMILES comes first, the peptide text is derived from it. Bridges are numbered along the chain shown (N, C = ends). [ ]: non-standard residue; d: D form. The star is where a group is joined. FITC = O=C1OC2(c3ccc(O)cc3Oc3cc(O)ccc32)c2ccc(NC(=S)*)cc21; N(2-mercaptoethyl)Gly = O=C(CN(CCS[*:3])[*:1])[*:2]; GABA = NCCCC(=O)O

Tests used:
PANC-1 tumors = experiment: In vivo biodistribution in PANC-1 xenograft mice, Maestro fluorescence imaging of harvested tissue; conditions: 1 day after administration, tissues as named in the value
Experimental: Five different pharmaceutical compositions were prepared, each by dissolving 1 mg of a different Somatostatin receptor ligand in 1 liter PBS.
Solid human-derived tumors were induced in 15 nude mice by subcutaneous injection of a suspension containing ˜5□10^5 human cancer cells (PANC-1) into the flank area of the mice.
2-3 weeks after the injection of the cancer cells, it was observed that the mice developed solid tumors with diameters of approximately 5-10 mm.
0.3 ml of each one of the five pharmaceutical compositions were systemically administered to three of the fifteen xenograft mice by injection into the tail vein using a 30 G needle.
The fifteen mice were sacrificed and from the bodies tumors, pancreas, spleen, kidney and liver were harvested.
The fluorescence of the harvested tissue was determined using the Maestro™ in vivo fluorescence imaging system (Cambridge Research & Instrumentation, Inc., Woburn, Mass., USA).

BON1 tumor = experiment: In vivo bio-distribution by fluorescence imaging in mice bearing BON1 tumor; set-up: species or system nude mice; conditions: 10 mg/kg IV
Experimental: Pharmacokinetics and bio-distribution of some of the compounds was studied in mouse xenograft models for human cancer. Four pharmaceutical compositions according to the teachings herein, each comprising a single compound according to the teachings herein, were administered intravenously (IV) into lateral tail vein of nude mice bearing BON1 or H116 tumors. Animals were sacrificed at 1, 3, 6 and 24 hours after injection and tumor and normal tissues were excised. Tissue bio-distribution of the compounds were studied using fluorescence imaging techniques.
Experiments were started 7-10 days after the injection, when the tumor diameter was approximately 5-10 mm. […]
Whole-body fluorescence imaging, low-magnification fluorescence microscopy and cellular level fluorescence microscopy methods were used to study tissue biodistribution of the compounds. For these purposes, SZX-12 fluorescence microscope (Olympus, Japan), IX81 inverted fluorescence microscope (Olympus, Japan) equipped with appropriate filter-cubes and digital color camera (DP71, Olympus) were used. Additionally, whole-body fluorescence imaging was performed by WB imaging system (Prizmatix, Israel). Quantitative spectrally-resolved fluorescence imaging was carried out using a spectral imaging (SI) system (SD300, Applied Spectral Imaging, Migdal Ha'Emek, Israel). […]

human SSTR5 = target: T1, human SSTR5 (Homo sapiens, UniProt P35346); experiment: Binding to transfected HEK cells expressing a single SSTRx subtype, FACS and fluorescence microscopy
T1 construct: expressed in transfected cells; host or cells: HEK-293, transient transfection, pcDNA 3.1
T1 sequence (P35346 whole entry): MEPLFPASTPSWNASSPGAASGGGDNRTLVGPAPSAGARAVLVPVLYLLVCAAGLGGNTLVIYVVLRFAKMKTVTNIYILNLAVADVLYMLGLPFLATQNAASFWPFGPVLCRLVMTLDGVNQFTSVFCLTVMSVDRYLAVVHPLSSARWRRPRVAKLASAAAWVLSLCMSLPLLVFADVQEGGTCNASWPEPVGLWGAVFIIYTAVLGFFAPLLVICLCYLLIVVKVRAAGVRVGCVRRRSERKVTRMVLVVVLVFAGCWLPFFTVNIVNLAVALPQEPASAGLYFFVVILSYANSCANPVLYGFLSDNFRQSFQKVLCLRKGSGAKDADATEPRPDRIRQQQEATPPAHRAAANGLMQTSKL
Experimental: (§1) The affinity of compounds 1-16 to each of the five SSTRx was tested using an in vitro model of transfected cell lines (HEK—human embryonic kidney), each expressing a single human SSTRx subtype. Biological activity assessment of the compounds to define a specific affinity to each subtype was performed by FACS and fluorescence imaging methods.
(§2) Human SSTRx were expressed in the cells by transient transfection. Each SSTR was expressed separately, creating five different cell lines using human gene transcript.
(§3) The transfection process is illustrated in FIG. 1. The transient transfection process was carried out before each experiment. Briefly, HEK cells were cultured in standard cell growth conditions. For testing, the cells were transferred into 96-well plates. The tested compounds were dissolved in DMSO and then diluted in a buffer solution to a final DMSO concentration of 5% as a composition according to the teachings herein. Various amounts of the thus-prepared compositions were added to the cells in medium in the 96-well plates and allowed to incubate for between 1 and 24 hours. Binding was determined using fluorescent microscopy and FACS.
(§4) Qualitative assessment of binding efficiency was done by visual inspection and digital photography using an inverted fluorescent microscope. Quantitative assessment was done using FACS.
(§5) HEK-293 cells (human embryonic kidney) were grown in Dulbecco's modified Eagle's medium (DMEM) supplemented with 4 mM glutamine, 10% fetal bovine serum (FBS) and 100 units/ml penicillin/streptomycin at 37° C./5% carbon dioxide. One day prior to transfection, the cells were trypsinized, counted and plated at a density of 3×10^5 per 35 mm diameter dish. Until 70% confluency, cells were transiently transfected with the pcDNA 3.1 vector bearing the coding region for the human SSTR human somatostatin receptor subtypes SSTR1-SSTR5. Transfections were carried out with JetPei transfection reagent (Polyplus-transfection, NY, USA) according to the manufacturer's recommendation. Briefly, 2 micrograms of plasmid DNA and 6 microliter of JetPei transfection reagent were used for each transfection. Each of the components were resuspended in 100 microliter of 150 mM NaCl, mixed and incubated for 25 minutes at room temperature and after incubation added to cells.
(§6) Cells were then seeded in a 96-well flat-bottom microplate (Costar, Corning, N.Y.) at a concentration of 5×10^4 cells/well. Twelve hours later, the supernatant was removed and replaced with fresh DMEM containing various (in the nM range) concentrations of tested compounds 1-16. The cells were incubated for additional time intervals ranging from 0.5-24 hr. At the end of the incubation period, supernatant was discarded and the cells were washed twice with cold PBS. The plates were examined using IX81 inverted microscope (Olympus, Japan) equipped with […] digital camera. Additionally, a FACS assay was used for quantitative analysis.
(§7) Quantitative assessment of binding affinity of Compounds 1-16 was performed by FACS in the transfected HEK cell model.
(§8) Quantitatively, specific binding affinity was assessed as the percentage of double stained [(GR=green and red indicating transfection)/(R is total red) less (G is green indicating unspecific binding)]: specific binding affinity=[GR/R−G]

human SSTR4 = target: T2, human SSTR4 (Homo sapiens, UniProt P31391); experiment: Binding to transfected HEK cells expressing a single SSTRx subtype, FACS
T2 construct: expressed in transfected cells; host or cells: HEK-293, transient transfection, pcDNA 3.1
T2 sequence (P31391 whole entry): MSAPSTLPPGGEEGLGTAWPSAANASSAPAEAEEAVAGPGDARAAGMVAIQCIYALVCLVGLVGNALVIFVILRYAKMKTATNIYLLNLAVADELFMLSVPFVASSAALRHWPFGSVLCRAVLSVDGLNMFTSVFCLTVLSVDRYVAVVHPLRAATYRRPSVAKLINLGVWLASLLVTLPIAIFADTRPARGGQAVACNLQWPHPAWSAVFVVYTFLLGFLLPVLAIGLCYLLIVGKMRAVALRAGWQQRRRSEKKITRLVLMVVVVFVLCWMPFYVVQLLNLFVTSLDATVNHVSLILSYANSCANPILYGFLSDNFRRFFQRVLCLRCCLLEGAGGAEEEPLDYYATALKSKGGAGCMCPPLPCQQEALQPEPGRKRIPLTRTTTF
Experimental: as §1, §2, §3, §4, §5, §6, §7, §8

SSTR1-SSTR5 = conditions: background statement; cited from earlier work
[1] = FACS, transfected HEK, specific binding affinity = percentage double stained [GR/R−G], 0 = no binding detected
[2] = Table 2 normalized according to the highest binding affinity of that compound
[3] = Table 2 normalized to Compound 1 (=100)

C[C@@H](O)[C@@H]1NC(=O)[C@H](CCCCN)NC(=O)[C@@H](Cc2c[nH]c3ccccc23)NC(=O)[C@H](Cc2c[nH]c3ccccc23)NC(=O)[C@H](Cc2ccccc2)NC(=O)[C@@H](NC(=O)[C@@H](Cc2ccccc2)NC(=O)CCCNC(=S)Nc2ccc3c(c2)C(=O)OC32c3ccc(O)cc3Oc3cc(O)ccc32)CSSCCN(CC(N)=O)C(=O)[C@H](Cc2ccccc2)NC1=O [Compound 1, FITC-GABA-DPhe-Cys*-Phe-Trp-DTrp-Lys-Thr-Phe-GlyS2*-NH2, reference compound]
Intensity in healthy tissue (in words) (PANC-1 tumors): undetectable in liver tissue

C[C@@H](O)[C@@H]1NC(=O)[C@H](CCCCN)NC(=O)[C@@H](Cc2c[nH]c3ccccc23)NC(=O)[C@H](Cc2ccccc2)NC(=O)[C@@H](NC(=O)[C@H](CCCNC(=N)N)NC(=O)[C@@H](Cc2ccccc2)NC(=O)CCCNC(=S)Nc2ccc3c(c2)C(=O)OC32c3ccc(O)cc3Oc3cc(O)ccc32)CSSCCN(CC(N)=O)C(=O)[C@H](Cc2ccccc2)NC1=O [Compound 2, FITC-GABA-D-Phe-Arg-Cys-Phe-D-Trp-Lys-Thr-Phe-GlyS2] ({FITC-GABA}-[dF]RCF[dW]KTF[N(2-mercaptoethyl)Gly]-NH2; disulfide 3-9)
Intensity in healthy tissue (in words) (PANC-1 tumors): undetectable in spleen, kidney and liver tissue

C[C@@H](O)[C@@H]1NC(=O)[C@H](CCCN)NC(=O)[C@@H](Cc2c[nH]c3ccccc23)NC(=O)[C@H](Cc2c[nH]c3ccccc23)NC(=O)[C@H](Cc2ccccc2)NC(=O)[C@@H](NC(=O)[C@@H](Cc2ccccc2)NC(=O)CCCNC(=S)Nc2ccc3c(c2)C(=O)OC32c3ccc(O)cc3Oc3cc(O)ccc32)CSSCCN(CC(N)=O)C(=O)[C@H](Cc2ccccc2)NC1=O [Compound 3, FITC-GABA-D-Phe-Cys-Phe-Trp-D-Trp-Orn-Thr-Phe-GlyS2]
Intensity in healthy tissue (in words) (PANC-1 tumors): undetectable in spleen, kidney and liver tissue
Time of maximal fluorescence signal in all tissues after administration (BON1 tumor; spleen, pancreas and tumor, FIG. 10): 6 h

C[C@@H](O)[C@@H]1NC(=O)[C@H](CCCCN)NC(=O)[C@@H](Cc2c[nH]c3ccccc23)NC(=O)[C@H](Cc2c[nH]c3ccccc23)NC(=O)[C@H](Cc2ccc(O)cc2)NC(=O)[C@@H](NC(=O)[C@@H](Cc2ccccc2)NC(=O)CCCNC(=S)Nc2ccc3c(c2)C(=O)OC32c3ccc(O)cc3Oc3cc(O)ccc32)CSSCCN(CC(N)=O)C(=O)[C@H](Cc2ccccc2)NC1=O [Compound 4, FITC-GABA-D-Phe-Cys-Tyr-Trp-D-Trp-Lys-Thr-Phe-GlyS2] ({FITC-GABA}-[dF]CYW[dW]KTF[N(2-mercaptoethyl)Gly]-NH2; disulfide 2-9)
Pattern of bio-distribution, order of fluorescence in tissue samples (BON1 tumor; fluorescence microscopy, 24 hrs after administration): tumor>spleen>pancreas>kidney>liver

CC(=O)NCCCC[C@@H]1NC(=O)[C@@H](Cc2c[nH]c3ccccc23)NC(=O)[C@H](Cc2c[nH]c3ccccc23)NC(=O)[C@H](Cc2ccccc2)NC(=O)[C@@H](NC(=O)[C@@H](Cc2ccccc2)NC(=O)CCCNC(=S)Nc2ccc3c(c2)C(=O)OC32c3ccc(O)cc3Oc3cc(O)ccc32)CSSCCN(CC(N)=O)C(=O)[C@H](Cc2ccccc2)NC(=O)[C@H]([C@@H](C)O)NC1=O [Compound 14, FITC-GABA-D-Phe-Cys-Phe-Trp-D-Trp-LysAc-Thr-Phe-GlyS2]
Relative binding affinity SSTR5 (human SSTR5; [1]): 2
Adjusted binding affinity SSTR5 (human SSTR5; [2]): 0.67
Binding affinity to SSTR5 relative to Compound 1 (human SSTR5; [3]): 7
Relative binding affinity SSTR4 (human SSTR4; [1]): 3
Adjusted binding affinity SSTR4 (human SSTR4; [2]): 1
Binding affinity to SSTR4 relative to Compound 1 (human SSTR4; [3]): 13

CC(C)[C@@H]1NC(=O)[C@H](CCCCN)NC(=O)[C@@H](Cc2c[nH]c3ccccc23)NC(=O)[C@H](Cc2ccc(O)cc2)NC(=O)[C@@H](NC(=O)[C@H](N)Cc2ccc3ccccc3c2)CSSC[C@@H](C(=O)N[C@H](C(N)=O)[C@@H](C)O)NC1=O [Lanreotide, Napht-Cys*-Tyr-Trp-Lys-Val-Cys*-Thr]
Affinity of binding to the SSTRx (in words) (SSTR1-SSTR5): high-affinity binding to SSTR2, moderate affinity binding to SSTRR3 and SSTR5, and almost no affinity binding to SSTR1 and SSTR4

DPhe-Cys*-Phe-DTrp-Lys-Thr-Cys*-Throl [Octreotide]
Affinity of binding to the SSTRx (in words) (SSTR1-SSTR5): high-affinity binding to SSTR2, moderate affinity binding to SSTRR3 and SSTR5, and almost no affinity binding to SSTR1 and SSTR4
